Laboratory results from US20260285888A1, “HETEROCYCLIC COMPOUND AND USE THEREOF” (OTSUKA PHARMACEUTICAL CO., LTD., priority 2023, published 2026).

Experiments:
in vitro = assay type: cell-based, human; settings: human, differentiated hl-60 cells, 300 μmol/L, about 24 hours, PMA-differentiated HL-60 cells, LDH; no-treatment 0%, cell lysis buffer 100%; read-out: cytotoxicity (%) Evaluation compound results
Protocol: An HL-60 cell line (human acute promyelocytic leukemia cells) was successively cultured in RPMI 1640 containing 20% fetal bovine serum (FBS) at 37° C. in 95% atmosphere/5% CO2. Before evaluation, the cells were pre-cultured for about 72 hours in the presence of 10 nM phorbol 12-myristate 13-acetate (PMA) to induce macrophage-like differentiation.
Evaluation compounds were dissolved in DMSO to obtain 30 mmol/L solutions (or suspensions). Each DMSO solution was diluted 100-fold with RPMI 1640 containing 2% FBS (final concentration of the compound: 300 μmol/L) to obtain a treatment solution. The culture supernatant of the differentiated HL-60 cells was removed, and each treatment solution was added and cultured for about 24 hours, followed by cytotoxicity evaluation.
The activity of lactate dehydrogenase (LDH) was measured in the treatment solutions exposed to the cells for about 24 hours by using a commercial kit (Cytotoxicity LDH Assay Kit-WST, Dojindo Laboratories) and a plate reader (Tecan Infinite M1000). The obtained measurement values were used to calculate cytotoxicity (%) as comparison values for each evaluation compound-treated group, with the no-treatment group taken as 0% and the cell lysis buffer-treated group taken as 100%. The test was conducted in triplicate in three wells each, and the average values were used as adopted values.

[1] = Study for confirmation of conversion to brexpiprazole in a buffer (stability of the evaluation compounds); assay type: physicochemical; settings: in buffer, average of duplicate; for Concentration of brexpiprazole formed: 60-minute reaction sample; for Concentration of evaluation compound decreased: decrease in 60-minute vs 0-minute reaction sample
Summary of the method: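 Compounds (final 1 μmol/L, from 100 μmol/L working solutions) incubated in buffer at 37° C. for 0 or 60 min, in duplicate, after 3 min pre-incubation of the reaction solution. Reactions stopped with acetonitrile/isopropanol (4:1) containing internal standards; compound and formed brexpiprazole quantified against 0.01–1 μmol/L calibration samples.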

Row | Structure (SMILES) | cytotoxicity at 24 h, 300 µM (in vitro) [%] | Concentration of brexpiprazole formed [1] [nM] | Concentration of evaluation compound decreased [1] [nM]
1 | COCCC(=O)OCOP(=O)([O-])OC[N+]1(CCCCOc2ccc3ccc(=O)[nH]c3c2)CCN(c2cccc3sccc23)CC1 [EX 28, (4-(benzo[b]thiophen-4-yl)-1-(4-((2-oxo-1,2-dihydroquinolin-7-yl)oxy)butyl)piperazin-1-ium-1-yl)methyl (((3-methoxypropanoyl)oxy)methyl) phosphate] | -8 | -10 | -70
2 | CCOCCC(=O)OCOP(=O)([O-])OC[N+]1(CCCCOc2ccc3ccc(=O)[nH]c3c2)CCN(c2cccc3sccc23)CC1 [EX 29, (4-(benzo[b]thiophen-4-yl)-1-(4-((2-oxo-1,2-dihydroquinolin-7-yl)oxy)butyl)piperazin-1-ium-1-yl)methyl (((3-ethoxypropanoyl)oxy)methyl) phosphate] | -4 | 0 | -10
3 | CCOC(=O)CC(C)(C)CC(=O)OCOP(=O)([O-])OC[N+]1(CCCCOc2ccc3ccc(=O)[nH]c3c2)CCN(c2cccc3sccc23)CC1 [EX 32, (4-(benzo[b]thiophen-4-yl)-1-(4-((2-oxo-1,2-dihydroquinolin-7-yl)oxy)butyl)piperazin-1-ium-1-yl)methyl (((5-ethoxy-3,3-dimethyl-5-oxopentanoyl)oxy)methyl) phosphate] | 5 | 0 | 10
4 | COCCOC(=O)OCOP(=O)([O-])OC[N+]1(CCCCOc2ccc3ccc(=O)[nH]c3c2)CCN(c2cccc3sccc23)CC1 [EX 33, (4-(benzo[b]thiophen-4-yl)-1-(4-((2-oxo-1,2-dihydroquinolin-7-yl)oxy)butyl)piperazin-1-ium-1-yl)methyl ((((2-methoxyethoxy)carbonyl)oxy)methyl) phosphate] | -7 | 0 | 0
5 | COCCOCCOC(=O)OCOP(=O)([O-])OC[N+]1(CCCCOc2ccc3ccc(=O)[nH]c3c2)CCN(c2cccc3sccc23)CC1 [EX 34, (4-(benzo[b]thiophen-4-yl)-1-(4-((2-oxo-1,2-dihydroquinolin-7-yl)oxy)butyl)piperazin-1-ium-1-yl)methyl (3-oxo-2,4,7,10-tetraoxaundecyl) phosphate] | -10 | 0 | 10
6 | COCCOCCOCCOC(=O)OCOP(=O)([O-])OC[N+]1(CCCCOc2ccc3ccc(=O)[nH]c3c2)CCN(c2cccc3sccc23)CC1 [EX 35, (4-(benzo[b]thiophen-4-yl)-1-(4-((2-oxo-1,2-dihydroquinolin-7-yl)oxy)butyl)piperazin-1-ium-1-yl)methyl (3-oxo-2,4,7,10,13-pentaoxatetradecyl) phosphate] | -9 | 0 | -20
7 | COCCCCOC(=O)OCOP(=O)([O-])OC[N+]1(CCCCOc2ccc3ccc(=O)[nH]c3c2)CCN(c2cccc3sccc23)CC1 [EX 36, (4-(benzo[b]thiophen-4-yl)-1-(4-((2-oxo-1,2-dihydroquinolin-7-yl)oxy)butyl)piperazin-1-ium-1-yl)methyl ((((4-methoxybutoxy)carbonyl)oxy)methyl) phosphate] | -10 | 0 | -40
8 | CC(O)CCOP(=O)([O-])OC[N+]1(CCCCOc2ccc3ccc(=O)[nH]c3c2)CCN(c2cccc3sccc23)CC1 (stereo not drawn) [EX 40, (4-(benzo[b]thiophen-4-yl)-1-(4-((2-oxo-1,2-dihydroquinolin-7-yl)oxy)butyl)piperazin-1-ium-1-yl)methyl (3-hydroxybutyl) phosphate] | -5 | 0 | 60
9 | CC(C)(O)CCOP(=O)([O-])OC[N+]1(CCCCOc2ccc3ccc(=O)[nH]c3c2)CCN(c2cccc3sccc23)CC1 [EX 41, (4-(benzo[b]thiophen-4-yl)-1-(4-((2-oxo-1,2-dihydroquinolin-7-yl)oxy)butyl)piperazin-1-ium-1-yl)methyl (3-hydroxy-3-methylbutyl) phosphate] | -3 | 0 | 70
10 | O=c1ccc2ccc(OCCCC[N+]3(COP(=O)([O-])OC/C=C/CO)CCN(c4cccc5sccc45)CC3)cc2[nH]1 [EX 42, (E)-(4-(benzo[b]thiophen-4-yl)-1-(4-((2-oxo-1,2-dihydroquinolin-7-yl)oxy)butyl)piperazin-1-ium-1-yl)methyl (4-hydroxybut-2-en-1-yl) phosphate] | 8 | 0 | 30
11 | O=c1ccc2ccc(OCCCC[N+]3(COP(=O)([O-])OC/C=C\CO)CCN(c4cccc5sccc45)CC3)cc2[nH]1 [EX 43, (Z)-(4-(benzo[b]thiophen-4-yl)-1-(4-((2-oxo-1,2-dihydroquinolin-7-yl)oxy)butyl)piperazin-1-ium-1-yl)methyl (4-hydroxybut-2-en-1-yl) phosphate] | -6 | 0 | 120
12 | O=c1ccc2ccc(OCCCC[N+]3(COP(=O)([O-])OCCCCCCO)CCN(c4cccc5sccc45)CC3)cc2[nH]1 [EX 44, (4-(benzo[b]thiophen-4-yl)-1-(4-((2-oxo-1,2-dihydroquinolin-7-yl)oxy)butyl)piperazin-1-ium-1-yl)methyl (6-hydroxyhexyl) phosphate] | -8 | 0 | -50
13 | O=c1ccc2ccc(OCCCC[N+]3(COP(=O)([O-])OCCCCCCCO)CCN(c4cccc5sccc45)CC3)cc2[nH]1 [EX 45, (4-(benzo[b]thiophen-4-yl)-1-(4-((2-oxo-1,2-dihydroquinolin-7-yl)oxy)butyl)piperazin-1-ium-1-yl)methyl (7-hydroxyheptyl) phosphate] | 3 | 0 | 70
14 | O=c1ccc2ccc(OCCCC[N+]3(COP(=O)([O-])OCCCCCCCCCO)CCN(c4cccc5sccc45)CC3)cc2[nH]1 [EX 46, (4-(benzo[b]thiophen-4-yl)-1-(4-((2-oxo-1,2-dihydroquinolin-7-yl)oxy)butyl)piperazin-1-ium-1-yl)methyl (9-hydroxynonyl) phosphate] | 14 | 0 | 40
15 | O=c1ccc2ccc(OCCCC[N+]3(COP(=O)([O-])OCC4(CO)CC4)CCN(c4cccc5sccc45)CC3)cc2[nH]1 [EX 47, (4-(benzo[b]thiophen-4-yl)-1-(4-((2-oxo-1,2-dihydroquinolin-7-yl)oxy)butyl)piperazin-1-ium-1-yl)methyl ((1-(hydroxymethyl)cyclopropyl)methyl) phosphate] | -5 | 0 | 0
16 | CC(C)(CO)COP(=O)([O-])OC[N+]1(CCCCOc2ccc3ccc(=O)[nH]c3c2)CCN(c2cccc3sccc23)CC1 [EX 48, (4-(benzo[b]thiophen-4-yl)-1-(4-((2-oxo-1,2-dihydroquinolin-7-yl)oxy)butyl)piperazin-1-ium-1-yl)methyl (3-hydroxy-2,2-dimethylpropyl) phosphate] | -9 | 0 | -30
17 | COCCCOP(=O)([O-])OC[N+]1(CCCCOc2ccc3ccc(=O)[nH]c3c2)CCN(c2cccc3sccc23)CC1 [EX 49, (4-(benzo[b]thiophen-4-yl)-1-(4-((2-oxo-1,2-dihydroquinolin-7-yl)oxy)butyl)piperazin-1-ium-1-yl)methyl (3-methoxypropyl) phosphate] | -7 | 0 | 50
18 | COCCCCOP(=O)([O-])OC[N+]1(CCCCOc2ccc3ccc(=O)[nH]c3c2)CCN(c2cccc3sccc23)CC1 [EX 50, (4-(benzo[b]thiophen-4-yl)-1-(4-((2-oxo-1,2-dihydroquinolin-7-yl)oxy)butyl)piperazin-1-ium-1-yl)methyl (4-methoxybutyl) phosphate] | -8 | 0 | 10
19 | CC(C)COCCOP(=O)([O-])OC[N+]1(CCCCOc2ccc3ccc(=O)[nH]c3c2)CCN(c2cccc3sccc23)CC1 [EX 51, (4-(benzo[b]thiophen-4-yl)-1-(4-((2-oxo-1,2-dihydroquinolin-7-yl)oxy)butyl)piperazin-1-ium-1-yl)methyl (2-isobutoxyethyl) phosphate] | -9 | 0 | 50
